Data as given in ChEMBL document CHEMBL1201862, “PubChem BioAssay data set” (2004).
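Dose response: 5 concentrations. Exposure: 48 h. Format: 96-well plates. Endpoint: linear interpolation; highest concentration if not reached. At the GI50, growth is halved.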 Active and inactive are the calls of the source. Cut-off read from the data, not from the text of the source: active = GI50 up to about 1.1 µM and inactive = higher.

Columns and labels:
Assay in all cases: NCI-60 cell line screen, 48 h
CCRF-CEM = system: CCRF-CEM
SN12C = system: SN12C
PC-3 = system: PC-3
OVCAR-3 = system: OVCAR-3
DU-145 = system: DU-145
K562 = system: K562
MDA-MB-435 = system: MDA-MB-435
Hs-578T = system: Hs-578T
EKVX = system: EKVX
UO-31 = system: UO-31
OVCAR-8 = system: OVCAR-8
RPMI-8226 = system: RPMI-8226
OVCAR-5 = system: OVCAR-5
SW-620 = system: SW-620
NCI-H23 = system: NCI-H23
Malme-3M = system: Malme-3M
RXF 393 = system: RXF 393
MCF7 = system: MCF7
UACC-257 = system: UACC-257
M14 = system: M14

Compound	GI50 (CCRF-CEM)	GI50 (SN12C)	GI50 (PC-3)	GI50 (OVCAR-3)	GI50 (DU-145)	GI50 (K562)	GI50 (MDA-MB-435)	GI50 (Hs-578T)	GI50 (EKVX)	GI50 (UO-31)	GI50 (OVCAR-8)	GI50 (RPMI-8226)	GI50 (OVCAR-5)	GI50 (SW-620)	GI50 (NCI-H23)	GI50 (Malme-3M)	GI50 (RXF 393)	GI50 (MCF7)	GI50 (UACC-257)	GI50 (M14)
CNC(=O)/C(C#N)=C(\N)N1CCCC1	> 100 µM (inactive)	> 100 µM (inactive)	> 100 µM (inactive)	> 100 µM (inactive)	> 100 µM (inactive)	> 100 µM (inactive)	> 100 µM (inactive)	> 100 µM (inactive)	> 100 µM (inactive)	> 100 µM (inactive)	> 100 µM (inactive)	> 100 µM (inactive)	> 100 µM (inactive)	> 100 µM (inactive)	> 100 µM (inactive)	> 100 µM (inactive)	> 100 µM (inactive)			
COc1cc2cc(C(=O)N3CC(CCl)c4ccc(O)cc43)[nH]c2c(OC)c1OC (centres undefined)	< 0.01 µM (active)	0.00441 µM (active)		0.0031 µM (active)	0.00466 µM (active)	0.000282 µM (active)	0.00263 µM (active)	0.016 µM (active)	0.0513 µM (active)	0.0198 µM (active)	0.00132 µM (active)	0.000556 µM (active)	0.129 µM (active)	0.00233 µM (active)	0.00199 µM (active)	0.00344 µM (active)	< 0.0001 µM (active)	< 0.0001 µM (active)	0.0149 µM (active)	0.00163 µM (active)
CC(=O)C1=C(C)O[C@@H]2O[C@H](COCc3ccccc3)[C@@H](OCc3ccccc3)[C@H](O)[C@@H]2S1	0.855 µM (active)	19.2 µM (inactive)	26.2 µM (inactive)	15.2 µM (inactive)	20.8 µM (inactive)	19.7 µM (inactive)	19 µM (inactive)	17.9 µM (inactive)	25.1 µM (inactive)	22 µM (inactive)	23 µM (inactive)	17.2 µM (inactive)	24.8 µM (inactive)	26.7 µM (inactive)	20.4 µM (inactive)	18.3 µM (inactive)	13.8 µM (inactive)		18.3 µM (inactive)	20.4 µM (inactive)
O=C(OC1CC(n2cc(F)c(=O)[nH]c2=O)OC1CSC(=O)c1ccccc1)c1ccccc1 (centres undefined)	37.2 µM (inactive)	28.1 µM (inactive)		23.4 µM (inactive)		54.3 µM (inactive)			33.3 µM (inactive)	38.8 µM (inactive)	34.8 µM (inactive)	22.5 µM (inactive)	61.8 µM (inactive)	30.8 µM (inactive)	26.4 µM (inactive)	28.7 µM (inactive)	27.3 µM (inactive)		29.2 µM (inactive)	28.1 µM (inactive)
COC(=O)C1=C(C(=O)OC)C2(C)Nc3ccccc3C2=C(c2ccccc2)C1 (centres undefined)	19.4 µM (inactive)	23.7 µM (inactive)		17.9 µM (inactive)		16.1 µM (inactive)			28.8 µM (inactive)	17.9 µM (inactive)	25 µM (inactive)	10.4 µM (inactive)	24.5 µM (inactive)	26.5 µM (inactive)	19 µM (inactive)	18.4 µM (inactive)	21.3 µM (inactive)		17.9 µM (inactive)	17 µM (inactive)
CC(C)(Br)C(Br)CC/C(=C/CBr)CBr.CC(C)(Br)C(Br)CC/C(=C\CBr)CBr (centres undefined)	0.91 µM (active)	2 µM (inactive)			10.5 µM (inactive)	2.24 µM (inactive)	3.69 µM (inactive)	19.1 µM (inactive)	25.3 µM (inactive)	14.3 µM (inactive)	2.54 µM (inactive)	1.47 µM (inactive)	18.6 µM (inactive)	2.71 µM (inactive)	3.41 µM (inactive)	3.85 µM (inactive)	2.22 µM (inactive)	3.29 µM (inactive)	6 µM (inactive)	2.02 µM (inactive)
COc1ccc(/C=C2/S/C(=N\c3ccccc3)N(NC(=O)Cc3ccccc3)C2=O)cc1	> 100 µM (inactive)	> 100 µM (inactive)		> 100 µM (inactive)	> 100 µM (inactive)	> 100 µM (inactive)	> 100 µM (inactive)	> 100 µM (inactive)	> 100 µM (inactive)	92.3 µM (inactive)	> 100 µM (inactive)	> 100 µM (inactive)	> 100 µM (inactive)	> 100 µM (inactive)	> 100 µM (inactive)		> 100 µM (inactive)	> 100 µM (inactive)	> 100 µM (inactive)	> 100 µM (inactive)
CCC1=C(C)/C(=C/c2[nH]c(C(Br)Br)c(CC)c2C)N=C1C(Br)Br	13.6 µM (inactive)	31.2 µM (inactive)		23.2 µM (inactive)		24.2 µM (inactive)			30.1 µM (inactive)	20.7 µM (inactive)	26.6 µM (inactive)	9.68 µM (inactive)	> 100 µM (inactive)	33.1 µM (inactive)	32.4 µM (inactive)	35 µM (inactive)	29.9 µM (inactive)		19.9 µM (inactive)	55.7 µM (inactive)
Cn1c2ccccc2c2ccc3c(c21)C(=O)c1ccccc1C3=O	3.02 µM (inactive)	20.6 µM (inactive)	13 µM (inactive)	12.9 µM (inactive)	84.5 µM (inactive)	11.8 µM (inactive)	16 µM (inactive)	14.1 µM (inactive)	12.5 µM (inactive)	25.5 µM (inactive)	17.3 µM (inactive)	12.2 µM (inactive)	> 100 µM (inactive)	28.2 µM (inactive)	15.7 µM (inactive)	5.86 µM (inactive)	15.8 µM (inactive)		19.5 µM (inactive)	27.2 µM (inactive)
Cc1cc(C)nc(/C(=N\NC(N)=O)C(=O)Nc2nc3ccc(C)cc3s2)c1	> 48.1 µM (inactive)	> 100 µM (inactive)		> 100 µM (inactive)		> 61.4 µM (inactive)			> 100 µM (inactive)	> 100 µM (inactive)	> 100 µM (inactive)	> 48.2 µM (inactive)	> 100 µM (inactive)	> 100 µM (inactive)	> 100 µM (inactive)	> 100 µM (inactive)	> 100 µM (inactive)		> 100 µM (inactive)	> 100 µM (inactive)
CC(=O)OCC1OC(n2ccc(=O)[nH]c2=O)C(OC(C)=O)C(OC(C)=O)C1OC(C)=O (centres undefined)	> 100 µM (inactive)	> 100 µM (inactive)		> 100 µM (inactive)		> 100 µM (inactive)			> 100 µM (inactive)	> 100 µM (inactive)	> 100 µM (inactive)	> 100 µM (inactive)	> 100 µM (inactive)	> 100 µM (inactive)	> 100 µM (inactive)	> 100 µM (inactive)	> 100 µM (inactive)		> 100 µM (inactive)	> 100 µM (inactive)
CN(C)C(=S)/N=c1\ssc(=S)n1Cc1cccnc1	8.53 µM (inactive)	5.18 µM (inactive)	1.67 µM (inactive)	1.65 µM (inactive)		1.12 µM (active)	0.277 µM (active)	1.86 µM (inactive)	> 88.9 µM (inactive)	13.1 µM (inactive)	3.66 µM (inactive)	3.47 µM (inactive)	35.9 µM (inactive)	1.26 µM (inactive)	2.64 µM (inactive)	2.16 µM (inactive)	1.47 µM (inactive)	2.91 µM (inactive)	4.23 µM (inactive)	2.37 µM (inactive)
CCOP(=O)(OCC)C(N)Cc1ccc(OC)c(OC)c1 (centres undefined)	> 100 µM (inactive)	> 100 µM (inactive)	> 100 µM (inactive)	> 100 µM (inactive)	> 100 µM (inactive)	> 100 µM (inactive)	> 100 µM (inactive)			> 100 µM (inactive)	> 100 µM (inactive)	> 100 µM (inactive)	> 100 µM (inactive)	> 100 µM (inactive)	> 100 µM (inactive)	> 100 µM (inactive)	> 100 µM (inactive)	45.3 µM (inactive)	> 100 µM (inactive)	> 100 µM (inactive)
CCOC(=O)c1sc2nc1CSc1sc(=S)sc1SCc1nc(sc1C(=O)OCC)-c1nc(c(C(=O)OCC)s1)CSc1sc(=S)sc1SCc1nc-2sc1C(=O)OCC	> 10 µM (inactive)	> 10 µM (inactive)	> 10 µM (inactive)	> 10 µM (inactive)		> 10 µM (inactive)	> 10 µM (inactive)	> 10 µM (inactive)	> 10 µM (inactive)	> 10 µM (inactive)	> 10 µM (inactive)	> 10 µM (inactive)	> 10 µM (inactive)	> 10 µM (inactive)	> 10 µM (inactive)	> 10 µM (inactive)	> 10 µM (inactive)	> 10 µM (inactive)	> 10 µM (inactive)	
NC(=O)C(N)=O	> 100 µM (inactive)	> 100 µM (inactive)		> 100 µM (inactive)		> 100 µM (inactive)			> 100 µM (inactive)	> 100 µM (inactive)	> 100 µM (inactive)	> 100 µM (inactive)	> 100 µM (inactive)	> 100 µM (inactive)	> 100 µM (inactive)	> 100 µM (inactive)	> 100 µM (inactive)		> 100 µM (inactive)	> 100 µM (inactive)
Nc1c(-c2ccc(Cl)c(Cl)c2)c2ccc([N+](=O)[O-])cc2c(=O)n1-c1nc2ccccc2s1	0.223 µM (active)	0.335 µM (active)	0.311 µM (active)	0.382 µM (active)	0.867 µM (active)	0.367 µM (active)	0.582 µM (active)		0.446 µM (active)	0.445 µM (active)	0.366 µM (active)	0.391 µM (active)	1.92 µM (inactive)	0.574 µM (active)	0.266 µM (active)	0.403 µM (active)	0.689 µM (active)	0.401 µM (active)	0.471 µM (active)	0.675 µM (active)
